Activity calls are given as the source filed them. The rule behind the calls is not given here.
Columns and labels:
661W [1] = experiment: Cytoprotective activity against 4HNE-induced mouse 661W cells assessed as reduction in ROS level at 1 uM preincubated for 2 hrs followed by 4-HNE addition and measured after 24 hrs in presence of A229 by CM-H2DCFDA staining based fluorescence analysis; format: functional, cell-based; details: time 26.0 hrs
661W [2] = experiment: Cytoprotective activity against 4HNE-induced mouse 661W cells assessed as reduction in ROS level at 0.5 uM preincubated for 2 hrs followed by 4-HNE addition and measured after 24 hrs in presence of A229 by CM-H2DCFDA staining based fluorescence analysis; format: functional, cell-based; details: time 26.0 hrs

Q: How did the Activity (661W [1]) turn out when O=C(Nc1ccc(O)c(NS(=O)(=O)c2ccc(F)cc2)c1)c1ccc(-c2ccccc2)cc1 was run?
A: Active

Q: And the Activity (661W [2])?
A: Active
